This assay has as its target T1, Estrogen sulfotransferase (Sus scrofa, UniProt Q95MF8).
T1 sequence (Q95MF8 whole entry): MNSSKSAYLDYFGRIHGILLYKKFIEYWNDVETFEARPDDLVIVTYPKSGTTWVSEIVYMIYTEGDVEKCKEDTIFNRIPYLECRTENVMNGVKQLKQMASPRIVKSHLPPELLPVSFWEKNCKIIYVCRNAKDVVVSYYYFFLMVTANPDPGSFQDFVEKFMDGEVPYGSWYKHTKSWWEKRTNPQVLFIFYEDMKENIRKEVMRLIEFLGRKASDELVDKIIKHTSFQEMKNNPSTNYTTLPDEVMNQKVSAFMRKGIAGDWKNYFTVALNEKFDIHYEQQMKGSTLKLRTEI
Description: Compound was tested for inhibition of porcine endometrial estrogen sulfotransferase. The settings on record: read-out: Ki app.
`C[C@]12CC[C@@H]3c4cc([N+](=O)[O-])ccc4CC[C@H]3[C@@H]1CC[C@@H]2O`: the Ki is 9.76 µM.

In the case of `C[C@]12CC[C@@H]3c4ccccc4CC[C@H]3[C@@H]1CC[C@@H]2O`, the Ki amounted to 16.3 µM.

With `C[C@]12CC[C@@H]3c4cccc(N)c4CC[C@H]3[C@@H]1CCC2=O`, the Ki was found to be 10.5 µM.

Consider `C[C@]12CC[C@@H]3c4cc(F)ccc4CC[C@H]3[C@@H]1CCC2O` (stereo not given in full), for which the Ki was determined as 13.6 µM.

With `C[C@]12CC[C@@H]3c4cccc(F)c4CC[C@H]3[C@@H]1CC[C@@H]2O`, the Ki was 10.2 µM.

For the compound `C[C@]12CC[C@@H]3c4cccc(N)c4CC[C@H]3[C@@H]1CCC2O` (stereo not given in full), the Ki stood at 11.9 µM.

Take `C[C@]12CC[C@@H]3c4cc(N)ccc4CC[C@H]3[C@@H]1CCC2O` (stereo not given in full): the Ki is 7.51 µM.

For the compound `C[C@]12CC[C@@H]3c4cccc([N+](=O)[O-])c4CC[C@H]3[C@@H]1CC[C@@H]2O`, the Ki was found to be 2.43 µM.

On to `C[C@]12CC[C@@H]3c4cccc(F)c4CC[C@H]3[C@@H]1CCC2=O`, for which the Ki came to 14.8 µM.

Regarding `C[C@]12CC[C@@H]3c4ccccc4CC[C@H]3[C@@H]1CCC2=O`, the Ki was found to be 25.1 µM.

(Values after ChEMBL document CHEMBL1123509, “In vitro inhibition of estrogen sulfoconjugation by some 2- and 4-substituted estra-1,3,5(10)-trien-17 beta-ols1a” (J Med Chem, 1986).)
